One experiment deals with human recombinant D-amino acid oxidase (Homo sapiens (Human), UniProt P14920). The experiment can be described thus: In vitro D-amino acid oxidase (DAAO) assay, 96-well plate. The class given is biochemical. Particulars: human recombinant DAAO; D-serine 5 mM, FAD 1 μM, 20 min, room temperature, Tris buffer pH 8.5; read-out: Inhibition of DAAO IC50. As for the experimental part: (§1) A reliable 96-well plate D-amino acid oxidase (DAAO) assay was developed based on previously published reports (J. Biol. Chem. 277: 27782 (2002)). […] All reactions were carried out for 20 min at room temperature in a 100-μL volume in Tris buffer (50 mM, pH 8.5). Additionally, stock solutions and serial dilutions of potential DAO inhibitors were made in 10:90 DMSO:buffer with a final assay DMSO concentration of 1%.
Chain of Porcine DAAO (P00371 whole entry): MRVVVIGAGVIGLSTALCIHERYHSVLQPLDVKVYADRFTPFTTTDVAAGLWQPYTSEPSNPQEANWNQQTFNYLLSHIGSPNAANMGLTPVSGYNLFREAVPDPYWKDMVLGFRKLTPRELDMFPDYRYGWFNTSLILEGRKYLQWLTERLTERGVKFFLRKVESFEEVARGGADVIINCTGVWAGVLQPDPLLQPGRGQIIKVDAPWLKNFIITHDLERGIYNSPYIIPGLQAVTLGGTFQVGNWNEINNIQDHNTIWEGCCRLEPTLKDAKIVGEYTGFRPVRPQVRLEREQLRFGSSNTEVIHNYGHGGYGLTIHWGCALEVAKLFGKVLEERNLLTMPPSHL
Chain of human recombinant D-amino acid oxidase (P14920 whole entry): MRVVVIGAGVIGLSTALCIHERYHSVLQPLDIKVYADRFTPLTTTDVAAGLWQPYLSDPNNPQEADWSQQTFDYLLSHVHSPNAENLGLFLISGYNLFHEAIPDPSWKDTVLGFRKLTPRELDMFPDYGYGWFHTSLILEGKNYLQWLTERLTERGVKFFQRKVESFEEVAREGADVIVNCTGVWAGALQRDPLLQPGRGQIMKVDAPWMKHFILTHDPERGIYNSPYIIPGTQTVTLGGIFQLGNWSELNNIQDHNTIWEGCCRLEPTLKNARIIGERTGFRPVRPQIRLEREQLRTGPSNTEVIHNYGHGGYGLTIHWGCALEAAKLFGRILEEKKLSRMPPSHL
`O=c1[nH]c(=O)n(CCn2cccc2)nc1O` [Compound 10c, 2-(2-(1H-pyrrol-1-yl)ethyl)-6-hydroxy-1,2,4-triazine-3,5(2H,4H)-dione]: the concentration for half-maximal inhibition (IC50) turned out to be 100 nM.
Still for that read-out and setting: the figure for `O=C(Cn1nc(O)c(=O)[nH]c1=O)c1ccccc1` [Compound 20, 6-Hydroxy-2-(2-oxo-2-phenylethyl)-1,2,4-triazine-3,5(2H,4H)-dione] is 1000 nM.
Same read-out and setting: the figure for `CC(C)N1CCN(CCn2nc(O)c(=O)[nH]c2=O)CC1` [Compound 12b, 6-Hydroxy-2-(2-(4-isopropylpiperazin-1-yl)ethyl)-1,2,4-triazine-3,5(2H,4H)-dione] is 9000 nM.
With `Cc1ccc(Cn2nc(O)c(=O)[nH]c2=O)c2ccccc12` [Compound 25c, 6-Hydroxy-2-((4-methylnaphthalen-1-yl)methyl)-1,2,4-triazine-3,5(2H,4H)-dione], the IC50 is 1000 nM.
Consider `O=c1[nH]c(=O)n(CCN2CCOCC2)nc1O` [Compound 10j, 6-Hydroxy-2-(2-morpholinoethyl)-1,2,4-triazine-3,5(2H,4H)-dione], for which the IC50 was 1000 nM.
Turning to `O=c1[nH]c(=O)n(CCc2ccccc2Cl)nc1O` [Compound 5g, 2-(2-Chlorophenethyl)-6-hydroxy-1,2,4-triazine-3,5(2H,4H)-dione], the IC50 was determined as 100 nM.
On the same count and under the same terms, the figure for `O=c1[nH]c(=O)n(CCc2ccc(F)c(F)c2)nc1O` [Compound 10b, 2-(3,4-Difluorophenethyl)-6-hydroxy-1,2,4-triazine-3,5(2H,4H)-dione] is 40 nM.
As for `O=c1[nH]c(=O)n(CCc2ccc(-c3ccccc3F)cc2)nc1O` [Compound 30, 2-(2-(2′-Fluorobiphenyl-4-yl)ethyl)-6-hydroxy-1,2,4-triazine-3,5(2H,4H)-dione], the IC50 stood at 80 nM.
`O=c1[nH]c(=O)n(CCn2cccn2)nc1O` [Compound 10d, 2-(2-(1H-pyrazol-1-yl)ethyl)-6-hydroxy-1,2,4-triazine-3,5(2H,4H)-dione]: the IC50 worked out at 300 nM.
`O=c1[nH]c(=O)n(CCc2ccc(C(F)(F)F)cc2)nc1O` [Compound 5k, 6-Hydroxy-2-(4-(trifluoromethyl)phenethyl)-1,2,4-triazine-3,5(2H,4H)-dione]: the IC50 turned out to be 80 nM.
In the case of `O=c1[nH]c(=O)n(CC(O)c2ccccc2)nc1O` (stereo not shown) [Compound 21, 6-Hydroxy-2-(2-hydroxy-2-phenylethyl)-1,2,4-triazine-3,5(2H,4H)-dione], the half-maximal inhibitory concentration (IC50) is 1000 nM.
In the case of `Cc1ccc(CCn2nc(O)c(=O)[nH]c2=O)cc1` [Compound 5h, 6-Hydroxy-2-(4-methylphenethyl)-1,2,4-triazine-3,5(2H,4H)-dione], the concentration for half-maximal inhibition (IC50) worked out at 100 nM.
`O=c1[nH]c(=O)n(CCc2ccc(Cl)cc2Cl)nc1O` [Compound 5m, 2-(2,4-Dichlorophenethyl)-6-hydroxy-1,2,4-triazine-3,5(2H,4H)-dione]: the half-maximal inhibitory concentration (IC50) amounted to 80 nM.
In the case of `CC(C)(C)CCn1nc(O)c(=O)[nH]c1=O` [Compound 5r, 2-(3,3-Dimethylbutyl)-6-hydroxy-1,2,4-triazine-3,5(2H,4H)-dione], the IC50 came to 40000 nM.
For the molecule `O=c1[nH]c(=O)n(CCc2cc(F)cc(F)c2)nc1O` [Compound 10r, 2-(3,5-Difluorophenethyl)-6-hydroxy-1,2,4-triazine-3,5(2H,4H)-dione], the half-maximal inhibitory concentration (IC50) is 200 nM.
For `CN(C)CCn1nc(O)c(=O)[nH]c1=O` [Compound 12a, 2-(2-(Dimethylamino)ethyl)-6-hydroxy-1,2,4-triazine-3,5(2H,4H)-dione], the 50% inhibitory concentration (IC50) was 5000 nM.
Regarding `O=c1[nH]c(=O)n(CCn2ccc3cccnc32)nc1O` [Compound 10g, 2-(2-(1H-pyrrolo[2,3-b]pyridin-1-yl)ethyl)-6-hydroxy-1,2,4-triazine-3,5(2H,4H)-dione], the half-maximal inhibitory concentration (IC50) is 300 nM.
On the same count and under the same terms, the figure for `O=c1[nH]c(=O)n(CCn2cnc3ccccc32)nc1O` [Compound 10f, 2-(2-(1H-benzo[d]imidazol-1-yl)ethyl)-6-hydroxy-1,2,4-triazine-3,5(2H,4H)-dione] is 300 nM.
For the molecule `O=c1[nH]c(=O)n(Cc2ccc(F)c3ccccc23)nc1O` [Compound 25b, 2-((4-Fluoronaphthalen-1-yl)methyl)-6-hydroxy-1,2,4-triazine-3,5(2H,4H)-dione], the half-inhibitory concentration (IC50) amounted to 200 nM.

The next experiment concerns the target Porcine DAAO (Sus scrofa (Pig), UniProt P00371). The experiment can be described thus: In vitro D-amino acid oxidase (DAAO) assay, porcine enzyme. Particulars: values marked *: Porcine DAAO was used to measure inhibitory potency; read-out: Inhibition of DAAO IC50. Format: biochemical. As for the experimental part:
as §1
As to `Cc1ccc2ccccc2c1Cn1nc(O)c(=O)[nH]c1=O` [Compound 10u, 6-Hydroxy-2-((2-methylnaphthalen-1-yl)methyl)-1,2,4-triazine-3,5(2H,4H)-dione], the IC50 came out at 600 nM.
As to `O=c1[nH]c(=O)n(CCc2ccc(N3CCOCC3)cc2)nc1O` [Compound 32, 6-Hydroxy-2-(4-morpholinophenethyl)-1,2,4-triazine-3,5(2H,4H)-dione], the IC50 was 1000 nM.
Regarding `CCOc1ccc(CCn2nc(O)c(=O)[nH]c2=O)cc1` [Compound 10t, 2-(4-Ethoxyphenethyl)-6-hydroxy-1,2,4-triazine-3,5(2H,4H)-dione], the IC50 amounted to 300 nM.

A word on the IC50: it is the concentration that inhibits the measured activity by half.

(Values after patent US9505753B2, “Inhibitors of D-amino acid oxidase” (THE JOHNS HOPKINS UNIVERSITY, priority 2012, dated 2016).)
